Key:
[1] = UV-vis absorption and fluorescence response of 4 to 5 equiv. of different cations
Method: (§1) FIG. 2 provides an absorbance spectra of 4 (10 μM) in EtOH/HEPES (10 mM) (1:1) (pH=7.2), upon addition of 5 equiv. of different cations.
(§2) FIG. 3 provides a fluorescence spectra of 4 (10 μM) in EtOH:HEPES=1:1 (pH=7.2) upon addition of 5 equiv. of different ions.
(§3) The ligand 4 gave a weak fluorescence peak at 580 nm (φfl=0.05). […] NIR emission was relatively stronger in pure methanol. The green fluorescence turn-on could be easily observed, making it also useful for naked eye detection (FIG. 3). […] In other words, the probe molecule 4 is silent to Cd^2+ cation, as its binding could not remove the phenolic proton (a necessary step to simultaneously shift the emission and turn on the ESIPT for NIR emission).
(§4) In order to clarify the interaction of 4 with different metal ions, the UV-vis absorption and fluorescence spectra of 4 (10 μM in EtOH:H2O=1:1 solutions) were studied by addition of 5 equiv. of different cations.

[2] = Absorption, emission and Stokes' shift of ligands and their zinc complexes (Table 1); assay type: physicochemical
[3] = system: human cancer cells (HepG2) and human umbilical vein endothelial cells (HUVECs); test: Confocal fluorescence imaging of intracellular Zn^2+ with sensor 4; assay type: cell-based
Method: FIG. 8A provides confocal fluorescence images of Human mesenchymal stem cells (hMSCs) excited with a 488 laser. The image were collected at bright field on an Olympus FV1000-Filter Confocal Microscopy. a→b: the cells were incubated with dye 4 for 60 mins at 37° C.
FIG. 8B provides confocal fluorescence images of Human mesenchymal stem cells (hMSCs) excited with a 488 laser. The images were collected at green channel (535-565 nm) on an Olympus FV1000-Filter Confocal Microscopy. a→b: the cells were incubated with dye 4 for 60 mins at 37° C.
(§5) FIG. 8C provides confocal fluorescence images of Human mesenchymal stem cells (hMSCs) excited with a 488 laser. The images were collected at bright field on an Olympus FV1000-Filter Confocal Microscopy. c→d: the cells were first treated with Zn(OAc)2 (30 μM) for 30 mins and further exposed to dye 4 (10 μM) for another 60 mins at 37° C.
as §5, with “8D” for “8C”, “green channel (535-565 nm)” for “at bright field”, “Microscopy.” for “Microscopy. c→d:”
To illustrate the potential biological application, sensor 4 was applied to visualize intracellular Zn^2+ in both human cancer cells (HepG2) and human umbilical vein endothelial cells (HUVECs) (See FIGS. 8A-D). FIGS. 8A-D show confocal fluorescence images of Human mesenchymal stem cells (hMSCs) excited with a 488 laser. The images were collected at bright field (a and c) and green channel (535-565 nm; b and d) on an Olympus FV1000-Filter Confocal Microscopy. a→b: the cells were incubated with dye 4 for 60 mins at 37° C.; c→d: the cells were first treated with Zn(OAc)2 (30 μM) for 30 mins and further exposed to dye 4 (10 μM) for another 60 mins at 37° C. For this purpose, cells were first incubated with 30 μM of Zn^2+ for 30 mins and then further treated with 10 μM dye 4 for another […]. […]

[4] = UV-vis absorption and fluorescence response of 4 to Al^3+
Method: as §1, §2
(§6) The binding property of 4 to Zn^2+ cation was examined in EtOH/HEPES (FIG. 2). As the Zn^2+ cation was added, a new absorption band was generated at about 450 nm.
as §3, §4

[5] = Fluorescence of free ligand 4; assay type: physicochemical
Method: as §2, §3, §4

[6] = UV-vis absorption and fluorescence response/titration of 4 with Zn^2+ in EtOH/HEPES; assay type: binding
Method: as §1, §2, §6, §3, §4
A It is important to note that, while the ligand 4 can bind Zn^2+ cation well, the same is not true for the Cd^2+ cation, although the atomic configuration ([Ar]3d^10 for Zn^2+ and [Kr]4d^10 for Cd^2+). On the basis of quick disappearance of the —OH signal at ˜10 ppm (^1H NMR in FIG. 5), the initial step might involve a weak interaction of metal cation with the imine —CH═N—, forming intermediate 5. […] The Zn^2+ cation in 6a could further interact with the adjacent hydroxyl group to form the fused 6-membered ring “B”, which requires twisting of the “HBO” fragment from the Schiff base fragment (ring A).

[7] = UV-vis absorption and fluorescence response of 4 to Cd^2+; assay type: binding
Method: as §1, §2, §6, §3, §4
When Cd^2+ was used, the interaction pattern appeared to be quite different. […] Therefore, the equilibrium between 6b and 8 might occur without forming the fused rings A-B in 4-Cd. […]

[8] = system: human mesenchymal stem cells (hMSCs); test: Confocal fluorescence imaging of intracellular Cr^3+ and Al^3+ with sensor 1; assay type: cell-based
Description: FIG. 15A provides a confocal fluorescence images of Human mesenchymal stem cells (hMSCs) excited with a Diode laser (405 nm) on an Olympus FV-1000 laser scanning microscope. The images were collected at bright field. […]
FIG. 15B provides a confocal fluorescence images of Human mesenchymal stem cells (hMSCs) excited with a Diode laser (405 nm) on an Olympus FV-1000 laser scanning microscope. The images were collected at bright field. […] 15E was collected from 535-565 nm.
FIG. 15C provides a confocal fluorescence images of Human mesenchymal stem cells (hMSCs) excited with a Diode laser (405 nm) on an Olympus FV-1000 laser scanning microscope. The images were collected at bright field. […] 15F was collected from 505-525 nm
FIG. 15D provides a confocal fluorescence images of Human mesenchymal stem cells (hMSCs) excited with a Diode laser (405 nm) on an Olympus FV-1000 laser scanning microscope. The images were collected fluorescent channels. […]
FIG. 15E provides a confocal fluorescence images of Human mesenchymal stem cells (hMSCs) excited with a Diode laser (405 nm) on an Olympus FV-1000 laser scanning microscope. The images were collected fluorescent channels. […] 15E was collected from 535-565 nm.
FIG. 15F provides a confocal fluorescence images of Human mesenchymal stem cells (hMSCs) excited with a Diode laser (405 nm) on an Olympus FV-1000 laser scanning microscope. The images were collected fluorescent channels. […] 15F was collected from 505-525 nm
The potential application of 1 for both Cr^3+ and Al^3+ in biological samples was examined by using confocal fluorescence microscopy. […] Bright-field measurements confirmed that the cells, after being treated with Cr^3+/Al^3+ and 1, were viable throughout the imaging experiments. […] Response to Cr^3+ and Al^3+ ions with distinctly different colors (yellow-green and cyan, respectively) from the cell samples raised the prospect that the Cr^3+ and Al^3+ ions could be simultaneously determined and distinguished

[9] = UV-vis and fluorescence response of sensor 1 to mono- and divalent metal ions
Description: (§7) (Cr: ΦF=0.63; Al: ΦF=0.31).

[10] = UV-vis and fluorescence response of sensor 1 to Al^3+ in H2O:EtOH=8:2
Description: as §7

[11] = Fluorescence response of sensor 1 to Fe^3+ in H2O:EtOH=8:2
Description: as §7

[12] = Absorption and fluorescence of free sensor 1 in aqueous medium; assay type: physicochemical
Method: Sensor 1 was synthesized by refluxing the corresponding dialdehyde (as described in W. Chen, Y. Xing, and Y. Pang, Org. Lett., 2011, 13, 1262) with hydrazinopyridine in EtOH for 2 hours, and was collected as yellow solid in >90% yield.
as §7

[13] = 10 μM in EtOH:H2O=1:1, 5 equiv.

Cc1ccc2nc(-c3cc(O)c(C=NNc4ccccn4)cc3O)oc2c1 [Sensor 4]
dual emission on addition of other cations (K^+, Na^+, Ag^+, Cd^2+, Ca^2+, Mg^2+, Pb^2+, Ni^2+, Hg^2+, Co^2+, Cu^2+, Cr^3+, Fe^3+, Al^3+) [1]: did not induce the dual emissions at 545 and 720 nm
fluorescence effect of Ag^+, Co^2+, Ni^2+ and Cu^2+ [1, 13]: quenched the fluorescence
fluorescence effect of Cr^3+, Fe^3+ and Al^3+ [1, 13]: slightly increased the fluorescence
red shift of fluorescence signal on addition of Cr^3+, Fe^3+ and Al^3+ [1, 13]: 25-37 nm
response to K^+, Na^+, Ca^2+ ions [1, 13]: no response
Absorption λmax (nm) [2]: 413 nm
Stokes' shift [2]: 6971 cm⁻¹
Emission λem (nm) ([2]; first or only emission peak): 580 nm
Stokes' shift ([2]; value in brackets): 167 nm
cell permeability [3]: permeable to cells
fluorescence in cells treated with Zn^2+ and the dye ([3]; 30 μM Zn^2+ 30 mins, then 10 μM dye): strong fluorescence
fluorescence in cells treated with only the dye ([3]; dye only, green channel 535-565 nm, 488 laser): very weak fluorescence
enhanced emission induced by Al^3+ [4]: ~610 nm
bathochromic shift of absorption on addition of other cations such as Al^3+ ([4]; EtOH/HEPES): did not cause a notable bathochromic shift
fluorescence peak of the ligand [5]: 580 nm
φfl [5]: 0.05
φfl upon addition of Zn^2+ ([6]; 1:1 EtOH/H2O): 0.26
new absorption band upon Zn^2+ addition ([6]; EtOH/HEPES): about 450 nm
association constant Ka ([6]; from the fluorescence titration data): 228000 M⁻¹
Stokes' shift of NIR emission ([6]; upon Zn^2+ binding): ~260 nm
NIR emission peak upon addition of Zn^2+ (keto tautomer) ([6]; upon addition of Zn^2+): ~720 nm
emission peak upon addition of Zn^2+ (enol tautomer) ([6]; upon addition of Zn^2+): 545 nm
selectivity toward Zn^2+ binding ([6]; versus other cations): excellent selectivity
fluorescence response to Cd^2+ cation [7, 13]: no observable fluorescence response
binding to Cd^2+ cation ([7]; absorption, EtOH/HEPES): weak binding

Oc1c(C=NNc2ccccn2)cc(C=NNc2ccccn2)cc1-c1nc2ccccc2o1 [Sensor 1]
cell permeability [8]: permeable to cells
intracellular fluorescence, control without added metal ions ([8]; 10 μM dye): negligible intracellular fluorescence
cell viability during imaging (bright-field) ([8]; after treatment with Cr^3+/Al^3+ and 1): viable
intracellular fluorescence after Al^3+ ([8]; then 10 μM sensor 30 minutes): significant increase in the fluorescence
intracellular fluorescence after Cr^3+ ([8]; then 10 μM sensor 30 minutes): significant increase in the fluorescence
fluorescence effect of Mn^2+, Ni^2+, Pb^2+, Ba^2+, Ag^+, Hg^2+ ([9]; 10 equiv.): slight quenching
response to Ca^2+, Mg^2+, Na^+ and K^+ ([9]; 10 equiv.): negligible response
change in UV-vis spectra on addition of M^+ and M^2+ cations ([9]; 10 equiv., except Cu^2+): almost no change
fluorescence effect of Cu^2+ ([9]; 10 equivalents): quenched the fluorescence
fluorescence change on addition of divalent metal ions ([9]; 10 equivalents, H2O:EtOH=8:2, except Cu^2+): negligible fluorescence change
Stokes' shift of the Al^3+ complex emission [10]: 170 nm
stability of fluorescence with Al^3+ over time [10]: quite stable
fluorescence response upon addition of Al^3+ ([10]; H2O:EtOH=8:2): immediate fluorescence turn-on
ΦF with Al^3+ ([10]; H2O:EtOH=8:2): 0.31
emission λem with Al^3+ ([10]; H2O:EtOH=8:2, blue-green): ~527 nm
Stokes' shift of the Cr^3+ complex emission: 195 nm
new π-π* absorption band upon addition of Cr^3+: about 358 nm
selectivity as chemosensor for Cr^3+ (10 equiv. other metal ions, then 10 equiv. Cr^3+): highly selective
fluorescence response upon addition of Cr^3+ (H2O:EtOH=8:2): immediate fluorescence turn-on
ΦF with Cr^3+ (H2O:EtOH=8:2): 0.63
emission λem with Cr^3+ (H2O:EtOH=8:2, yellow green): ~556 nm
fluorescence response upon addition of Fe^3+ [11]: immediate fluorescence turn-on
time to quenching of fluorescence with Fe^3+ [11]: ≤ 5 min
absorption major peak (π-π*) [12]: 315 nm
absorption minor peak (n-π*) [12]: 432 nm
Stokes' shift ([12]; free sensor, H2O:EtOH=8:2): 180 nm
ΦF ([12]; free sensor, H2O:EtOH=8:2): 0.1

Source: patent publication US9891237B2, “Fluorescent sensor for metal cation detection based on 2-(2′-hydroxyphenyl)benzazole containing a Schiff base moiety” (priority 2013, dated 2018)
